Measurements from US9113629B2, “4-amino-6-(4-substituted-phenyl)-picolinates and 6-amino-2-(4-substituted-phenyl)-pyrimidine-4-carboxylates and their use as herbicides” (DOW AGROSCIENCES LLC, priority 2013, dated 2015).

Assays:
Test in all cases: Pre-emergent Test III, preemergent activity in wheat and barley
APESV = type: in vivo, Apera spica-venti
Method: (§1) Pre-emergent Test III. Seeds of test species were planted into square plastic pots (10 cm wide) containing sandy loam soil. After planting, all pots were sub-irrigated 16 h prior to compound application. A weighed amount, determined by the highest rate to be tested, of each test compound was placed in a 25 mL glass vial and was dissolved in 4 mL of a 97:3 v/v mixture of acetone and DMSO to obtain concentrated stock solutions. […] The concentrated stock solutions obtained were diluted with 20 mL of an aqueous mixture containing water and 0.02% w/v (weight/volume) of Triton X-155 to obtain spray solutions containing the highest application rates. Additional application rates were obtained by serial dilution of 12 mL of the high rate solution into a solution containing 2 mL of 97:3 v/v mixture of acetone and DMSO and 10 mL of an aqueous mixture containing water and 0.02% w/v (weight/volume) of Triton X-155 to obtain 1⁄2×, 1⁄4×, 1⁄8× and 1/16× rates of the high rate. Compound requirements are based upon a 12 mL application volume at a rate of 187 liters per hectare (L/ha). Formulated compounds were applied to the soil surface with an overhead Mandel track sprayer equipped with […] nozzles calibrated to deliver 187 L/ha over an application area of 0.503 square meters. Control pots were sprayed in the same manner with the solvent blank. The treated pots and control pots were placed in a greenhouse as described above and watered through surface irrigation. After 21 d, the condition of the test pots as compared with that of the untreated pots was determined visually and scored on a scale of 0 to 100 percent where 0 corresponds to no herbicidal effect and 100 corresponds to plant death or lack of emergence from the soil. By applying the well-accepted probit analysis as described by J. Berkson in Journal of the American Statistical Society, 48, 565 (1953) and by D. Finney in “Probit Analysis” Cambridge University Press (1952), the above data can be used to calculate GR20, GR50, GR80 and GR90 values, which are defined as growth reduction factors that correspond to the effective dose of herbicide required to kill or control 20 percent, 50 percent, 80 percent or 90 percent, respectively, of a target plant.

SETVI = type: in vivo, Setaria viridis
Method: as §1

HORSS = type: in vivo, Hordeum vulgare
Method: as §1

TRZSS = type: in vivo, Triticum aestivum
Method: as §1

[1] = 21 days after application, dose to kill or control 50%, probit analysis
[2] = 21 days after application, dose to kill or control 80%, probit analysis
[3] = 21 days after application, dose to kill or control 20%, probit analysis

Structure (SMILES): COC(=O)c1nc(-c2ccc(Br)c(F)c2)c(F)c(N)c1Cl [Compound 49]
- Visual Growth Reduction (%) 21 Days After Application, APESV (APESV; 35 g ai/ha): F (30-44)
- Visual Growth Reduction (%) 21 Days After Application, APESV (APESV; 70 g ai/ha): E (45-59)
- GR50 APESV (APESV; [1]): >70 g ai/ha
- GR80 APESV (APESV; [2]): >70 g ai/ha
- Visual Growth Reduction (%) 21 Days After Application, SETVI (SETVI; 35 g ai/ha): F (30-44)
- Visual Growth Reduction (%) 21 Days After Application, SETVI (SETVI; 70 g ai/ha): F (30-44)
- GR50 SETVI (SETVI; [1]): >70 g ai/ha
- GR80 SETVI (SETVI; [2]): >70 g ai/ha
- Visual Growth Reduction (%) 21 Days After Application, HORSS (HORSS; 35 g ai/ha): G (0-29)
- Visual Growth Reduction (%) 21 Days After Application, HORSS (HORSS; 70 g ai/ha): G (0-29)
- GR20 HORSS (HORSS; [3]): >70 g ai/ha
- Visual Growth Reduction (%) 21 Days After Application, TRZSS (TRZSS; 35 g ai/ha): G (0-29)
- Visual Growth Reduction (%) 21 Days After Application, TRZSS (TRZSS; 70 g ai/ha): G (0-29)
- GR20 TRZSS (TRZSS; [3]): >70 g ai/ha
